From publication PMC8880385 (Pharmaceuticals, 2022) come the findings set out here.

As usually defined, the inhibition is the drop in the measured response relative to a control, in per cent. For orientation: IC50 means the point on the concentration scale where inhibition reaches its midpoint. One may read the Papp A→B as how fast a substance crosses the layer from the apical side. The low end stands for poor permeation, the high end for ready permeation. For orientation: Papp B→A means the apparent permeability from the basolateral to the apical side of a cell layer.

Data set [1] deals with O. volvulus pre-adult L5. As to the kind of experiment: O. volvulus pre-adult (Ov L5) motility assay. The format is cell-based, Onchocerca volvulus. The note with it: Onchocerca volvulus. The protocol: O. volvulus adult male and female worms, which can only be obtained from infected individuals, are not readily accessible for ex vivo studies. Moreover, since there is no small animal model that can maintain infections by O. volvulus, a recently developed in vitro system was used to evaluate the macrofilaricidal effects on pre-adult worms. All compounds except for 04 were tested in this O. volvulus pre-adult/L5 motility and viability assay.
(§1) Briefly, Ov L3 larvae were cultured to the pre-adult/L5 stage in vitro as described by Voronin et al., 2019 [45]. Once larvae reached the L5 stage (after at least 70 days in culture), 8–10 Ov L5 were moved to new transwell inserts in a 24-well plate containing 0.5 mL Ov L4-CMS media seeded with a 3 × 10^4/well Human Umbilical Vein Endothelial Cells (HUVEC) monolayer. Duplicate wells were treated with 1 and/or 10 µM of compound. Ov L5 were exposed to compounds for 14 days (exchanged 50% of media with fresh compound every two days) and then cultured with new media without compound, exchanging 50% of media every 2–3 days, up to day 36. Control Ov L5 were treated with 0.05% DMSO. Concentrations were chosen based on activity in the B. pahangi female motility assay. Motility was assessed visually and ranked on a 0–100% scale every 2–3 days over the course of the assay. At the end of the motility assay, Ov L5 viability was measured by 3-(4,5-dimethylthiazol-2-yl)-2,5-diphenyltetrazolium bromide (MTT) assay. Ov L5 were incubated with 0.1% MTT in PBS at 37 °C for 1 h then visually inspected for blue coloration indicating MTT reduction. Worms were considered dead if <50% of the worm was stained blue, and worms were considered alive if >50% of the worm was stained blue.

Data set [2] has as its system O. volvulus pre-adult L5. As to the kind of experiment: Ov L5 viability by endpoint MTT assay. The class given is cell-based, Onchocerca volvulus. The note with it: 1 µM. The protocol: as §1, with “Concentrations were chosen based on activity in the B. pahangi female motility assay.” left out
Data set [3] concerns Brugia pahangi adult females. As to the kind of experiment: In vitro motility assay with adult female Brugia pahangi (Worminator). The note with it: for inhibition at 1 µM / IC50: Brugia pahangi, 72 h; for inhibition at 1 µM: read-out: Brugia Adult Females Inhibition of Motility Day 3 @ 1 µM, 1 µM, Day 3; for IC50: read-out: Brugia Adult Females Inhibition of Motility Day 3 IC50.

The next data set deals with O. ochengi adult males. As to the kind of experiment: O. ochengi adult male motility assay. The class given is cell-based. The note with it: Onchocerca ochengi, 120 h; for inhibition at 10 µM: single concentration 10 µM, read-out: O. ochengi Adult Males Inhibition of Motility Day 5; for IC50: read-out: O. ochengi Adult Males Inhibition of Motility Day 5 IC50. An excerpt: (§2) As humans are the only hosts for O. volvulus which are unavailable for screening, drug discovery relies on the surrogate filarial parasites Brugia spp. and cattle Onchocerca spp. Prioritized compounds from the Brugia worm screens were further tested with female and male adult O. ochengi as well as O. ochengi and L. loa mf.
(§3) For these assays, O. ochengi adults were extracted from the subcutaneous nodules of infected cow skins purchased from the local slaughterhouse (Douala, Littoral Region, Cameroon) and incubated in 4 mL complete culture media comprised of RPMI-1640 (Sigma-Aldrich), 5% newborn calf serum, 200 units/mL penicillin, 200 μg/mL streptomycin and 2.5 μg/mL amphotericin B (Sigma-Aldrich) in 12-well plates overnight to validate sterility prior to the assays. Four to eight O. ochengi adult masses were treated individually the following day with a serial dilution of each compound, and controls were treated with 1% DMSO. While in culture, the male worms normally egress from the nodules into the surrounding media and thus can be monitored in parallel for motility. The O. ochengi adult masses were incubated at 37 °C with 5% CO2 for the duration of the assay. Male motility within each well was visually scored every day and over 5 days after compound addition, and female viability within the nodules was assessed by MTT after 7 days as previously described. The O. ochengi adult masses containing female worms were individually placed in wells of a 48-well plate with 0.5 mL of 0.5 mg/mL MTT in PBS and incubated at 37 °C for 30 min. Female viability was visually rated by the degree of formazan production (live worms have blue coloration) in the female worm within the treated nodule versus control worm masses. […] Prism 4.0 for Windows was used to calculate IC50s.

The nature of a further data set: in vitro. The note with it: dog, MDCK-MDR1. The protocol: Permeability assays were conducted using 5 µM of each test compound with digoxin as a control. […] electrical resistance was used to verify the integrity of the MDCK-MDR1 monolayer. After compound addition, plates were incubated at 37 °C with 5% CO2 for 1 h. Samples were analyzed by LC–MS/MS and net flux ratio was calculated using basal-to-apical and apical-to-basal permeability.

For another data set, the system named is Loa loa mf. As to the kind of experiment: Loa loa microfilariae motility counter-screen. The note with it: for inhibition at 10 µM: Loa loa, 120 h, Day 5. The class given is cell-based. Here is the method:
(§4) To assess the effects of the compounds on O. ochengi mf, the mf were harvested from infected cow skin and cultured (10–15 mf per well) in 100 µL media in 96-well plates with a confluent feeder layer of monkey kidney epithelial cells (MK2) as previously described. […] All compounds were also counter-screened with L. loa mf collected from infected individuals with approval from the University of Buea (IRB approval # 964-19). Mf were separated from blood cells using a Percoll gradient as previously described and set up for assays (10–15 mf per well).

Data set [4] in a line: Gerbil liver microsome stability assay. The note with it: for CLint: gerbil liver microsomes; for half-life at 1 µM: pH 7.4, 1 µM compound, 0.5 mg/mL microsomes, read-out: Gerbil Liver Microsome T1/2. The format is in vitro ADME. The protocol:
Microsomal stability was tested using 1 µM of each test compound in a 96-well plate containing 0.5 mg/mL gerbil liver microsomes, 1 mM NADPH and/or UDPGA with alamethicin in a buffer of 100 mM potassium phosphate with 3 mM magnesium chloride at pH 7.4. Verapamil was used as a positive control. Reactions were incubated at 37 °C, and 100% acetonitrile with 0.1% formic acid was added at 0, 15, 30 and 60 min timepoints to stop the reaction. Samples were then separated over a Waters Atlantis T3 dC18 reverse phase HPLC column with 0.1% formic acid in water and 0.1% formic acid in acetonitrile. Samples were analyzed using an AB Sciex API 4000 LC–MS/MS.

In a further data set the test system is O. ochengi mf. As to the kind of experiment: O. ochengi microfilariae motility assay. The format is cell-based, Onchocerca ochengi. The note with it: 10 µM; for inhibition at 10 µM: Onchocerca ochengi, 120 h, Day 5. Here is the method: as §4
The test system of another data set is O. ochengi adult females. As to the kind of experiment: O. ochengi adult female viability (MTT) assay. The format is cell-based. The note with it: Onchocerca ochengi, 168 h; Day 7, MTT; read-out: O. ochengi Adult Females Inhibition of Survival Day 7 IC50.
Description: as §2
as §3, with “min.” for “min. Female viability was visually rated by the degree of formazan production (live worms have blue coloration) in the female worm within the treated nodule versus control worm masses.”

[5] abbreviates: Day 36 @ 1 µM, 14 days drug then washout.

In the case of `Cc1nn(-c2ccccc2)c(C)c1/C=C/c1ccc2ccccc2[n+]1C.[I-]` [Analog 05, 2-[(E)-2-(3,5-dimethyl-1-phenyl-1H-pyrazol-4-yl)ethenyl]-1-methylquinolin-1-ium iodide], the inhibition at 1 µM with O. volvulus pre-adult L5 [1] (setting [5]) is above 90%. Further, in the data set on O. volvulus pre-adult L5 [2], the “O. volvulus L5 % inhibition of viability Day 37 (MTT assay)” value was found to be 76%. In addition, in data set [3], the “Brugia Adult Females Inhibition of Motility Day 3 @ 1 µM” value was 81%, the inhibition at 1 µM is above 70%, the IC50 turned out to be 405 nM and the “Brugia Adult Females Inhibition of Motility Day 3 IC50” value was “sub-micromolar range”. Further, in the data set on O. ochengi adult males, the inhibition at 10 µM was 86%. In the data set “in vitro”, this compound registered a Papp A→B of 0.7 ×10⁻⁶ cm/s and a Papp B→A of 6.8 ×10⁻⁶ cm/s. Besides, in the data set on Loa loa mf, the “Loa loa Mf Inhibition of Motility Day 5 @ 10 µM” value (“Loa loa Mf Inhibition” below) is given as “little to no effect” and the inhibition at 10 µM came to 38%. Further, in [4], the CLint is listed as 179.88 µL/min/mg Protein and the half-life at 1 µM came out at 7.7 min. Further, in the data set with O. ochengi mf, the “O. ochengi Mf Inhibition of Motility Day 5 @ 10 µM” value (from here on “O. ochengi Mf Inhibition”) was “little to no effect” and the inhibition at 10 µM is 0%.
Consider `C[n+]1c(/C=C/c2cnn(-c3ccccc3)c2)ccc2ccccc21.[I-]` [Analog 04, 1-methyl-2-[(E)-2-(1-phenyl-1H-pyrazol-4-yl)ethenyl]quinolin-1-ium iodide], for which the inhibition at 1 µM in [3] stood at 26%. The inhibition at 10 µM in the data set on O. ochengi adult males turned out to be 100%; in the data set on Loa loa mf, 38%; in the data set with O. ochengi mf it was 0%. For the same compound, the “Loa loa Mf Inhibition” value in the data set on Loa loa mf is recorded as “little to no effect”. Moreover, in the data set on O. ochengi mf, the “O. ochengi Mf Inhibition” value was “little to no effect”.
With `Cc1c(/C=C/c2ccc3ccccc3[n+]2C)cnn1-c1ccccc1.[I-]` [Analog 03, 1-methyl-2-[(E)-2-(5-methyl-1-phenyl-1H-pyrazol-4-yl)ethenyl]quinolin-1-ium iodide], in the data set with O. ochengi adult females, the half-inhibitory concentration (IC50) was 5180 nM. In addition, the inhibition at 10 µM in the data set with O. volvulus pre-adult L5 [1] (672 h, Day 28 @ 10 µM) was 97%. Further, the inhibition at 1 µM in [3] was 3%. For the same compound, the IC50 with O. ochengi adult males was determined as 1540 nM. Further, in “in vitro”, the Papp A→B worked out at 1.3 ×10⁻⁶ cm/s and the Papp B→A worked out at 9.1 ×10⁻⁶ cm/s. In addition, in the data set with Loa loa mf, the “Loa loa Mf Inhibition” value is reported as “little to no effect” and at 10 µM the inhibition was 13%. Moreover, in [4], the CLint is on record as 280.2 µL/min/mg Protein and the half-life at 1 µM is 4.9 min. Moreover, in the data set with O. ochengi mf, the “O. ochengi Mf Inhibition” value is on record as “little to no effect” and at 10 µM the inhibition was 0%.
For the compound `Cc1ccc2c(ccc(/C=C/c3cc(C)n(-c4ccccc4)c3C)[n+]2C)c1.[I-]` [Analog 02, 2-[(E)-2-(2,5-dimethyl-1-phenyl-1H-pyrrol-3-yl)ethenyl]-1,6-dimethylquinolin-1-ium iodide], the IC50 in the data set on O. ochengi adult females was 700 nM. In the data set with O. volvulus pre-adult L5 [1] (384 h, Day 16 @ 1 µM, assay stopped on day 16 (contamination)), this compound gave an inhibition at 1 µM of 90%. The inhibition at 1 µM in the data set on O. volvulus pre-adult L5 [1] (setting [5]) is above 90%. In addition, in data set [3], the “Brugia Adult Females Inhibition of Motility Day 3 @ 1 µM” value is on record as 83%, the inhibition at 1 µM is above 70%, the IC50 was found to be 1 nM and the “Brugia Adult Females Inhibition of Motility Day 3 IC50” value was “sub-micromolar range”. Also, the IC50 in the data set with O. ochengi adult males was 3080 nM. In “in vitro”, this compound yielded a Papp A→B of 0.1 ×10⁻⁶ cm/s and a Papp B→A of 51.2 ×10⁻⁶ cm/s. Further, in the data set with Loa loa mf, the “Loa loa Mf Inhibition” value is on record as “completely inhibited” and testing at 10 µM gave an inhibition of 100%. Further, in [4], the CLint was found to be 541.8 µL/min/mg Protein and the half-life at 1 µM was found to be 2.6 min. In the data set with O. ochengi mf, the “O. ochengi Mf Inhibition” value is “completely inhibited” and the inhibition at 10 µM stood at 100%.
